In this assay the test system is Gram-negative and Gram-positive bacteria. Description: Bacterial resistance (growth inhibition) assay, environmental isolates. Type of assay: cell-based. The settings on record: M9 medium, 24 h; except B. gladioli GSRB05 and P. putida KT2440; PT as L-PT.

For the compound `CP(=O)(O)CCC(N)C(=O)O` (racemic) [PT, phosphinothricin, reference compound], the “concentration inhibiting each species to the same degree” value turned out to be 400 µM.

The values are drawn from US12414932B2, “Arsinothricin and methods of treating infections using arsinothricin” (priority 2018, dated 2025).
